Where two headings read alike, the source gives them in different places.

Results on 24 molecules are retold here after patent US11384060B2, “Amide compounds and use thereof” (ALPHALA CO., LTD., priority 2017, dated 2022).

Test [1] has as its target T1, glucagon receptor (GCGR) overexpressed CHO-K1 cells or human primary hepatocytes (Homo sapiens, UniProt P47871).
T1 construct: expressed in transfected cells; host or cells: GCGR overexpressed CHO-K1 cells or human primary hepatocytes (endogenous receptor)
As to the kind of experiment: Glucagon cAMP inhibition assay (Cisbio cAMP Dynamic 2 HTRF). The format is cell-based. An outline of the steps: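 HTRF read-out of glucagon-induced cAMP, with IC50 from non-linear regression. Cells (GCGR CHO-K1 or human primary hepatocytes) in HBSS/0.1% BSA/800 nM IBMX took compound dilutions for 30 min (final DMSO 1%), then EC50-level glucagon for 30 min at room temperature, then a 60 min lysis/detection step.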
(In general: TR-FRET usually uses a lanthanide donor and a delayed reading to cut background.)

The target of the next test is T2, glucagon receptor (GCGR) (Homo sapiens, UniProt P47871).
T2 construct: expressed in transfected cells; host or cells: CHO-K1 cells overexpressing GCGR (membrane fractions)
As to the kind of experiment: I125-glucagon binding assay (competition, GCGR membrane fractions). The method in brief: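 Competition of 0.0625 nM (final) I^125-glucagon for 30 min at 25° C, after 5 min compound preincubation, using 7.5 μg/well GCGR-overexpressing CHO-K1 membranes in 50 mM Tris pH 7.4, 0.5% BSA. Filtration onto PEI-coated GF/B, micro-beta counting, and non-linear regression gave IC50.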

[2] abbreviates: inhibition of glucagon (EC50 concentration) induced cAMP production.
[3] abbreviates: competition with I125-glucagon 0.0625 nM, membrane fractions of GCGR overexpressed CHO-K1 cells.

T1 sequence (P47871 26-477): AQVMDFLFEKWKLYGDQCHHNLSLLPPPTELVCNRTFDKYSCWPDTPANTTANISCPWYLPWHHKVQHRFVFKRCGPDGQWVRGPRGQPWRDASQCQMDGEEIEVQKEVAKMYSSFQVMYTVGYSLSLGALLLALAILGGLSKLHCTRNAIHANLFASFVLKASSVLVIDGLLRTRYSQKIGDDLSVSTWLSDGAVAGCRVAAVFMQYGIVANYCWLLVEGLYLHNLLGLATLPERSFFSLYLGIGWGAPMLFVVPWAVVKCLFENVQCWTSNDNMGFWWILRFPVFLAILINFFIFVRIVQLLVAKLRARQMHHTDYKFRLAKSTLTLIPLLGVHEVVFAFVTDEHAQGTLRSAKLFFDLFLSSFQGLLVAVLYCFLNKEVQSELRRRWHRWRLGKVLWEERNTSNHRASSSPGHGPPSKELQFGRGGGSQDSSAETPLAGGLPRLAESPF
T2 sequence (P47871 26-477): as above

By IC50 is commonly meant the point on the concentration scale where inhibition reaches its midpoint. Read a high IC50 as lower potency. For `O=C(O)CCNC(=O)c1ccc(N[C@@H](Cc2ccccc2)C(=O)Nc2ccc(-c3ccc(Cl)cc3Cl)cc2)cc1` [Compound 23-2, (S)-3-(4-((1-((2′,4′-dichloro-[1,1′-biphenyl]-4-yl)amino)-1-oxo-3-phenylpropan-2-yl)amino)benzamido)propanoic Acid], the “IC50 cAMP” value in test [1] worked out at 5.2 µM. Moreover, the IC50 at glucagon receptor (GCGR) is 0.462 µM.

`O=C(O)CCNC(=O)c1ccc(N[C@@H](Cc2ccccc2)C(=O)Nc2ccc(-c3ccc(Cl)cc3Cl)cc2)cc1` [Compound 23-14, (S)-3-(4-((1-((2′,4′-dichloro-[1,1′-biphenyl]-4-yl)amino)-1-oxo-3-phenylpropan-2-yl)amino)benzamido)propanoic Acid]: the “IC50 cAMP” value in test [1] (uM) was over 10 µM. The IC50 on glucagon receptor (GCGR) (uM) is over 10 µM.

`CC(C)COC[C@H](Cc1ccc(-c2cc3ccccc3o2)cc1)Nc1ccc(C(=O)NCCC(=O)O)cc1` [Compound 19-32, (S)-3-(4-((1-(4-(benzofuran-2-yl)phenyl)-3-isobutoxypropan-2-yl)amino)benzamido)propanoic Acid]: the “IC50 cAMP” value in test [1] was 1.017 µM. Besides, the IC50 on glucagon receptor (GCGR) amounted to 0.483 µM.

As for `CC(C)C[C@@H](COc1ccc(-c2ccc(C(F)(F)F)cc2Cl)cn1)Nc1ccc(C(=O)NCCC(=O)O)cc1` [Compound 15-10, (S)-3-(4-((1-((5-(2-chloro-4-(trifluoromethyl)phenyl)pyridin-2-yl)oxy)-4-methylpentan-2-yl)amino)benzamido)propanoic Acid], the “IC50 cAMP” value in test [1] was 0.1984 µM. Further, the IC50 on glucagon receptor (GCGR) was determined as 0.08 µM.

Consider `CC(C)C[C@H](Nc1ccc(C(=O)NCCC(=O)O)cc1)C(=O)Nc1ccc(-c2cc3ccccc3s2)cc1` [Compound 23-12, (S)-3-(4-((1-((4-(benzo[b]thiophen-2-yl)phenyl)amino)-4-methyl-1-oxopentan-2-yl)amino)benzamido)propanoic Acid], for which, in test [1], the “IC50 cAMP” value came out at 4.1 µM. Moreover, at glucagon receptor (GCGR), the concentration for half-maximal inhibition (IC50) came to 0.375 µM.

On to `CCOC(=O)CCNC(=O)c1ccc(N[C@@H](Cc2cccc3ccccc23)C(=O)Nc2ccc(C(C)(C)C)cc2)cc1` [Compound 23-17, Ethyl (S)-3-(4-((1-((4-(tert-butyl)phenyl)amino)-3-(naphthalen-1-yl)-1-oxopropan-2-yl)amino)benzamido)propanoate], for which, in test [1], the “IC50 cAMP” value amounted to 7.4 µM. The IC50 on glucagon receptor (GCGR) (uM) was over 10 µM.

With `CC(C)[C@@H](COc1cnc(-c2ccc(Cl)cc2Cl)nc1)Nc1ccc(C(=O)NCCC(=O)O)cc1` [Compound 12-6, (S)-3-(4-((1-((2-(2,4-dichlorophenyl)pyrimidin-5-yl)oxy)-3-methylbutan-2-yl)amino)benzamido)propanoic Acid], the “IC50 cAMP” value in test [1] (setting [2]) was over 30 µM. At glucagon receptor (GCGR) (setting [3]), this molecule gave an IC50 of 1.67 µM.

Regarding `CC(C)[C@@H](COc1ccc(-c2ccc(C(C)(C)C)cc2)nn1)Nc1ccc(C(=O)NCCC(=O)O)cc1` [Compound 17-12, (S)-3-(4-((1-((6-(4-(tert-buty)phenyl)pyridazin-3-yl)oxy)-3-methylbutan-2-yl)amino)benzamido)propanoic Acid], in test [1] (setting [2]), the “IC50 cAMP” value stood at 6.494 µM. On glucagon receptor (GCGR) (setting [3]), this molecule gave an IC50 of 20 µM.

On to `CC[C@H](C)[C@@H](CSc1ccc(-c2cc3ccccc3o2)cc1)Nc1ccc(C(=O)NCCC(=O)O)cc1` [Compound 5-3, 3-(4-(((2S,3S)-1-((4-(benzofuran-2-yl)phenyl)thio)-3-methylpentan-2-yl)amino)benzamido)propanoic Acid], for which, in test [1] (setting [2]), the “IC50 cAMP” value worked out at 0.9469 µM. The molecule also yielded an IC50 on glucagon receptor (GCGR) (setting [3]) of 0.4 µM.

As to `CCCOC[C@H](Cc1ccc(-c2cccc(C(F)(F)F)c2)cc1)Nc1ccc(C(=O)NCCC(=O)O)cc1` [Compound 19-23, (S)-3-(4-((1-propoxy-3-(3′-(trifluoromethyl)-[1,1′-biphenyl]-4-yl)propan-2-yl)amino)benzamido)propanoic Acid], the “IC50 cAMP” value in test [1] is 1.126 µM. At glucagon receptor (GCGR), this molecule returned an IC50 of 1.31 µM.

For `Cc1cc(C)c(-c2ccc(C[C@H](Nc3ccc(C(=O)NCCC(=O)O)cc3)c3nnc(-c4ccc(C(C)(C)C)cc4)o3)cc2)c(C)c1` [Compound 20-5, (S)-3-(4-((1-(5-(4-(tert-butyl)phenyl)-1,3,4-oxadiazol-2-yl)-2-(2′,4′,6′-trimethyl-[1,1′-biphenyl]-4-yl)ethyl)amino)benzamido)propanoic Acid], in test [1], the “IC50 cAMP” value was over 30 µM. The molecule also showed an IC50 at glucagon receptor (GCGR) of 4.86 µM.

`CCCOC[C@H](Cc1ccc(-c2ccc(C(C)(C)C)cc2)cc1)Nc1ccc(C(=O)NCCC(=O)O)cc1` [Compound 19-12, (S)-3-(4-((1-(4′-(tert-butyl)-[1,1′-biphenyl]-4-yl)-3-propoxypropan-2-yl)amino)benzamido)propanoic Acid]: the “IC50 cAMP” value in test [1] was determined as 1.788 µM. This molecule came in with an IC50 on glucagon receptor (GCGR) of 0.763 µM.

Consider `CCCC[C@@H](COc1ccc(-c2ccc(Cl)cc2Cl)c(F)c1)Nc1ccc(C(=O)NCCC(=O)O)cc1` [Compound 8-16, (S)-3-(4-((1-((2′,4′-dichloro-2-fluoro-[1,1′-biphenyl]-4-yl)oxy)hexan-2-yl)amino)benzamido)propanoic Acid], for which the “IC50 cAMP” value in test [1] (setting [2]) was 0.135 µM. For the same molecule, the IC50 at glucagon receptor (GCGR) (setting [3]) was 0.089 µM.

Turning to `CCOC(=O)CCNC(=O)c1ccc(N[C@H](Cc2ccc(-c3cc4ccccc4o3)cc2)C(=O)Nc2ccc(C(F)(F)F)cc2)cc1` [Compound 24-19, Ethyl (R)-3-(4-((3-(4-(benzofuran-2-yl)phenyl)-1-oxo-1-((4-(trifluoromethyl)phenyl)amino)propan-2-yl)amino)benzamido)propanoate], in test [1], the “IC50 cAMP” value was 0.5384 µM. The molecule further registered an IC50 on glucagon receptor (GCGR) of 1.37 µM.

On to `CC(C)NC(=O)[C@@H](Cc1ccc(-c2cc3ccccc3o2)cc1)Nc1ccc(C(=O)NCCC(=O)O)cc1` [Compound 24-22, (R)-3-(4-((3-(4-(benzofuran-2-yl)phenyl)-1-(isopropylamino)-1-oxopropan-2-yl)amino)benzamido)propanoic Acid], for which the “IC50 cAMP” value in test [1] was found to be 9.522 µM. Also, at glucagon receptor (GCGR), the IC50 turned out to be 17.6 µM.

For `CC[C@H](C)[C@@H](COc1ccc(-c2ccc(C(F)(F)F)cc2Cl)c(F)c1)Nc1ccc(C(=O)NCCC(=O)O)cc1` [Compound 8-8, 3-(4-(((2S,3S)-1-((2′-chloro-2-fluoro-4′-(trifluoromethyl)-[1,1′-biphenyl]-4-yl)oxy)-3-methylpentan-2-yl)amino)benzamido)propanoic Acid], the “IC50 cAMP” value in test [1] (setting [2]) is 0.5 µM. This molecule gave an IC50 on glucagon receptor (GCGR) (setting [3]) of 0.277 µM.

`CCCOC[C@H](Cc1ccc(-c2ccc(C(F)(F)F)cc2)cc1)Nc1ccc(C(=O)NCCC(=O)O)cc1` [Compound 19-22, (S)-3-(4-((1-propoxy-3-(4′-(trifluoromethyl)-[1,1′-biphenyl]-4-yl)propan-2-yl)amino)benzamido)propanoic Acid]: in test [1], the “IC50 cAMP” value was 0.9865 µM. In addition, the IC50 on glucagon receptor (GCGR) was 0.745 µM.

With `O=C(O)CCNC(=O)c1ccc(N[C@H](Cc2ccc(-c3ccc(Cl)cc3Cl)cc2)C(=O)Nc2ccc(C(F)(F)F)cc2)cc1` [Compound 24-18, (R)-3-(4-((3-(2′,4′-dichloro-[1,1′-biphenyl]-4-yl)-1-oxo-1-((4-(trifluoromethyl)phenyl)amino)propan-2-yl)amino)benzamido)propanoic Acid], in test [1], the “IC50 cAMP” value amounted to 1.51 µM. At glucagon receptor (GCGR), this molecule returned an IC50 of 0.239 µM.

For the molecule `COc1cnc(-c2ccc([C@@H](COc3ccc(-c4cc5ccccc5o4)cn3)Nc3ccc(C(=O)NCCS(=O)(=O)O)cc3)cc2)nc1` [Compound 15-35, (S)-2-(4-((2-((5-(benzofuran-2-yl)pyridin-2-yl)oxy)-1-(4-(5-methoxypyrimidin-2-yl)phenyl)ethyl)amino)benzamido)ethane-1-sulfonic Acid], in test [1], the “IC50 cAMP” value is over 30 µM. Moreover, the IC50 on glucagon receptor (GCGR) turned out to be 0.584 µM.

On to `CCCC[C@@H](COc1ccc(-c2ccc(C(F)(F)F)cc2)cc1)Nc1ccc(C(=O)NCCC(=O)O)cc1` [Compound 1-15, (S)-3-(4-((1-((4′-(trifluoromethyl)-[1,1′-biphenyl]-4-yl)oxy)hexan-2-yl)amino)benzamido)propanoic Acid], for which, in test [1] (setting [2]), the “IC50 cAMP” value came to 0.3388 µM. Also, on glucagon receptor (GCGR) (setting [3]), the IC50 turned out to be 0.211 µM.

For the molecule `CC[C@H](C)[C@@H](COc1ccc(-c2ccc(OC)cc2Cl)cc1)Nc1ccc(C(=O)NCCC(=O)O)cc1` [Compound 1-38, 3-(4-(((2S,3S)-1-((2′-chloro-4′-methoxy-[1,1′-biphenyl]-4-yl)oxy)-3-methylpentan-2-yl)amino)benzamido)propanoic Acid], in test [1] (setting [2]), the “IC50 cAMP” value came out at 0.203 µM. Besides, the IC50 at glucagon receptor (GCGR) (setting [3]) came to 0.172 µM.

For the molecule `Cc1cc(OC[C@H](CC(C)C)Nc2ccc(C(=O)NCCC(=O)O)cc2)cc(C)c1-c1ccc(OC(F)(F)F)cc1` [Compound 2-3, (S)-3-(4-((1-((2,6-dimethyl-4′-(trifluoromethoxy)-[1,1′-biphenyl]-4-yl)oxy)-4-methylpentan-2-yl)amino)benzamido)propanoic Acid], the “IC50 cAMP” value in test [1] (setting [2]) was 0.493 µM. At glucagon receptor (GCGR) (setting [3]), the IC50 was 0.465 µM.

Turning to `O=C(O)CCNC(=O)c1ccc(NC(COc2ccc(-c3ccc(C(F)(F)F)cc3)cc2)c2ccccc2)cc1` (stereo not drawn) [Compound 1-28, 3-(4-((1-phenyl-2-((4′-(trifluoromethyl)-[1,1′-biphenyl]-4-yl)oxy)ethyl)amino)benzamido)propanoic Acid], the “IC50 cAMP” value in test [1] (setting [2]) was 0.2877 µM. The same molecule returned an IC50 at glucagon receptor (GCGR) (setting [3]) of 0.15 µM.

Regarding `Cc1cc(OC[C@@H](Nc2ccc(C(=O)NCCC(=O)O)cc2)C(C)C)cc(C)c1-c1ccc(C(C)(C)C)cc1` [Compound 2-5, (S)-3-(4-((1-((4′-(tert-butyl)-2,6-dimethyl-[1,1′-biphenyl]-4-yl)oxy)-3-methylbutan-2-yl)amino)benzamido)propanoic Acid], in test [1] (setting [2]), the “IC50 cAMP” value came to 0.352 µM. The concentration for half-maximal inhibition (IC50) on glucagon receptor (GCGR) (setting [3]) is 0.347 µM.
